# Laboratory results as given in patent publication US20210260010A1, “COMPOSITIONS AND METHODS FOR THE REDUCTION OR TREATMENT OF INFLAMMATION” (AXCELLA HEALTH INC., priority 2018, published 2021).
# How the values were obtained:
# Format in all cases: cell-based
# MCP1/CCL2 = MCP1/CCL2 secretion by primary human hepatocytes exposed to free fatty acids and TNF-α (ELISA); details: for MCP1 expression relative to Control- Donor 1, Mean: donor 1 hepatocytes; for MCP1 expression relative to Control- Donor 1, Mean / MCP1 expression relative to Control- Donor 2, Mean: FFA + TNF-α, baseline subtracted; for MCP1 expression relative to Control- Donor 2, Mean: donor 2 hepatocytes; for MCP1/CCL2 secretion (baseline subtracted): primary human hepatocytes from two healthy donors, FFA 250 uM + TNF-α 1 ng/ml
# Experimental: Hepatocyte lipotoxicity appears to be a central driver of hepatic cellular injury via oxidative stress and endoplasmic reticulum (ER) stress. The ability of amino acids to influence steatosis (lipid accumulation) and inflammation in hepatocytes was assessed using human primary hepatocytes (Lonza, TRL).
# Primary hepatocytes lot nos. from two healthy human donors were seeded on day 0 at density of 6e04 cells in 96 well optical microplates (Thermofisher) in hepatocyte plating media (William's E medium (Gibco) supplemented with 10% heat-inactivated FBS (Atlanta Bio), 2 mM Glutamax (Gibco) and 0.2% Primocin (InVivoGen) and incubated for 6 hours at 37° C., 5% CO2. After 6 hours, cells were washed twice and incubated overnight at 37° C., 5% CO2 with Hepatocytes defined medium (Corning) supplemented with 2 mM Glutamax (Gibco) and 1× Penicillin/Streptomycin. On day 1, cells were washed twice and incubated for 24 h in the hepatocyte culture media in the same conditions described above.
# On day 2, cells were washed twice with DPBS 1× (Gibco) and maintained in amino acid-free WEM (US Biologicals) containing a defined custom amino acid concentration based on the mean physiological concentrations in blood. The values are published in the Human Metabolome Database (Wishart D S, Tzur D, Knox C, et al., HMDB: the Human Metabolome Database. Nucleic Acids Res. January 2007; 35(Database issue):D521-6. 17202168; which is hereby incorporated by reference in its entirety). This custom media is supplemented with 11 mM Glucose, 0.272 mM Sodium Pyruvate, and a dose curve of defined amino acid compositions (i.e., vehicle, LIVRQ+N-acetylcysteine, LIVRQ, RQ+N-acetylcysteine, N-acetylcysteine alone, LIV, or individually with L-Leucine, L-Isoleucine, L-Valine, L-Arginine, L-Glutamine, and L-Cysteine) at various ranges of concentrations. Cells were maintained in this defined media for 24 hours at 37° C., 5% CO2.
# After pre-treatment, cells were exposed to free fatty acids (FFA) at 250 uM with a ratio of 2:1 (Oleate:Palmitate) supplemented with TNF-α (Thermofisher) at 1 ng/ml or vehicle. Cells were incubated with the FFAs mixture and the different amino acids combinations for 24 hours at 37° C., 5% CO2. After 24 hours incubation, media was removed for cytokine analysis and replaced by fresh media containing the same stimulus conditions and amino acid concentrations. Cells were incubated for an additional 48 hours for a total of 72 hours of FFA and TNFα stimulation.
# Human CCL2 (MCP-1) was measured by ELISA (Human […] DuoSet ELISA, R&D Systems) at ⅕ or 1/10 dilution in 1× Reagent Diluent (Reagent Ancillary Kit 2, R&D Systems). Data were normalized to the specific per well cell density determined by nuclei count stained by Hoechst 3342 (Life technologies) in the fluorescence microscopy described below.
# IL-6 = IL-6 cytokine secretion by TNFα-stimulated primary human hepatic stellate cells (ELISA); details: for IL-6 cytokine secretion, per-cell normalized, fold change from plasma amino acid background: primary human hepatic stellate cells, two donors, TNFα 3 ng/mL, 12 hours
# Experimental: (§1) Primary human hepatic stellate cells were obtained from Samsara Sciences and grown in Complete HSC Medium to […] confluence in T75 or T150 flasks below passage 10 were seeded into 96-well plates and incubated for 6 hours at 37° C., 5% CO2 in a humidified incubator. After 6 hours, plates were removed from the incubator washed with DPBS and pretreated (±single amino acid dropout, ±supplemental amino acid dose; see experiment for medium composition) overnight, ˜14-15 hours. After overnight pretreatment, the medium was removed from the cells, and the same pretreatment medium, now supplemented with 3 ng/mL TNFα was applied. Plates were incubated for 12 hours at 37° C., 5% CO2. After 12 hour stimulus with TNFα, supernatant was removed and frozen at −80° C. in two separate aliquots. Plates were washed and incubated with CCK-8 viability reagent (Dojindo) for 1 hour. Viability was measured on the Synergy plate reader. Immediately, the medium was removed and the plates were fixed for immunofluorescence staining.
# (§2) Human CCL2/MCP1 and Human IL-6 were measured by ELISA (Human […] DuoSet ELISA, R&D Systems; Human IL-6 DuoSet ELISA, R&D Systems) at ⅕ and 1/20 dilution in 1× Reagent Diluent (Reagent Ancillary Kit 2, R&D Systems). Data were normalized to the specific per well cell density determined by Hoechst stained nuclei count.
# Tables 39-42 show per-cell normalized IL-6 cytokine secretion in primary human hepatic stellate cells from two donors as a fold change from the plasma amino acid background. Statistical significance calculated by one-way ANOVA with Dunnett's multiple comparison test within each treatment group.
# MCP-1 = MCP-1 chemokine secretion by TNFα-stimulated primary human hepatic stellate cells (ELISA); details: for MCP-1 chemokine secretion, per-cell normalized, fold change from plasma amino acid background: primary human hepatic stellate cells, two donors, TNFα 3 ng/mL, 12 hours; for Fold Change MCP1 Secretion Normalized Per Cell, Mean: donor 3 hepatic stellate cells, TNFα, fold change from plasma amino acid background
# Experimental: as §1, §2
# Tables 35-38 show per-cell normalized MCP-1 chemokine secretion in primary human hepatic stellate cells from two donors as a fold change from the plasma amino acid background. Statistical significance calculated by one-way ANOVA with Dunnett's multiple comparison test within each treatment group.
# [1] = Conc. 153 μM (baseline comparator)
# [2] = Conc. 234 μM (baseline comparator)
compound,measurement,setting,value
"CC(C)C[C@H](N)C(=O)O [Leucine, L-Leucine]","MCP1 expression relative to Control- Donor 1, Mean",MCP1/CCL2; [1],5.92E−16
same,"MCP1 expression relative to Control- Donor 2, Mean",MCP1/CCL2; [1],−4.7E−15
same,"MCP1 expression relative to Control- Donor 1, Mean",MCP1/CCL2; Conc. 3054 μM,3.34
same,"MCP1 expression relative to Control- Donor 2, Mean",MCP1/CCL2; Conc. 3054 μM,16.11
same,"MCP1 expression relative to Control- Donor 1, Mean",MCP1/CCL2; Conc. 7635 μM,1.896
same,"MCP1 expression relative to Control- Donor 2, Mean",MCP1/CCL2; Conc. 7635 μM,−2.988
same,"MCP1 expression relative to Control- Donor 1, Mean",MCP1/CCL2; Conc. 15270 μM,−1.368
same,"MCP1 expression relative to Control- Donor 2, Mean",MCP1/CCL2; Conc. 15270 μM,−26.6436
same,MCP1/CCL2 secretion (baseline subtracted),MCP1/CCL2,did not have an effect
same,Fold Change IL-6 Secretion Normalized Per Cell,"IL-6; donor 1, Conc. 153 μM (plasma background, reference)",1.0000
same,Fold Change IL-6 Secretion Normalized Per Cell,"IL-6; donor 2, Conc. 153 μM (plasma background, reference)",1.0000
same,"IL-6 cytokine secretion, per-cell normalized, fold change from plasma amino acid background",IL-6,no significant effect
same,Fold Change MCP1 Secretion Normalized Per Cell,"MCP-1; donor 3, Conc. 153 μM (plasma background, reference)",1.0000
same,Fold Change MCP1 Secretion Normalized Per Cell,"MCP-1; donor 3, Conc. 3054 μM",1.1479
same,Fold Change MCP1 Secretion Normalized Per Cell,"MCP-1; donor 3, Conc. 7635 μM",1.3054
same,Fold Change MCP1 Secretion Normalized Per Cell,"MCP-1; donor 3, Conc. 15270 μM",1.1808
same,Fold Change MCP1 Secretion Normalized Per Cell,"MCP-1; donor 4, Conc. 153 μM (plasma background, reference)",1.0000
same,"MCP-1 chemokine secretion, per-cell normalized, fold change from plasma amino acid background",MCP-1,no significant impact
"CC(=O)N[C@@H](CS)C(=O)O [NAC, N-acetylcysteine]","MCP1 expression relative to Control- Donor 1, Mean",MCP1/CCL2; Conc. 1000 μM,−0.7629
same,"MCP1 expression relative to Control- Donor 2, Mean",MCP1/CCL2; Conc. 1000 μM,1.602
same,"MCP1 expression relative to Control- Donor 1, Mean",MCP1/CCL2; Conc. 2500 μM,−2.498
same,"MCP1 expression relative to Control- Donor 2, Mean",MCP1/CCL2; Conc. 2500 μM,−4.0591
same,"MCP1 expression relative to Control- Donor 1, Mean",MCP1/CCL2; Conc. 5000 μM,−10.8919
same,"MCP1 expression relative to Control- Donor 2, Mean",MCP1/CCL2; Conc. 5000 μM,−10.5725
same,"MCP1 expression relative to Control- Donor 1, Mean",MCP1/CCL2; Conc. 10000 μM,−17.6065
same,"MCP1 expression relative to Control- Donor 2, Mean",MCP1/CCL2; Conc. 10000 μM,−28.4419
same,"MCP1 expression relative to Control- Donor 1, Mean",MCP1/CCL2; Conc. 5 X,−0.7629
same,"MCP1 expression relative to Control- Donor 1, Mean",MCP1/CCL2; Conc. 10 X,−2.498
same,"MCP1 expression relative to Control- Donor 1, Mean",MCP1/CCL2; Conc. 20 X,−10.8919
same,"MCP1 expression relative to Control- Donor 1, Mean",MCP1/CCL2; Conc. 40 X,−17.6065
same,"MCP1 expression relative to Control- Donor 2, Mean",MCP1/CCL2; Conc. (X) 1000,1.602
same,"MCP1 expression relative to Control- Donor 2, Mean",MCP1/CCL2; Conc. (X) 2500,−4.0591
same,"MCP1 expression relative to Control- Donor 2, Mean",MCP1/CCL2; Conc. (X) 5000,−10.5725
same,"MCP1 expression relative to Control- Donor 2, Mean",MCP1/CCL2; Conc. (X) 10000,−28.4419
same,MCP1/CCL2 secretion (baseline subtracted),MCP1/CCL2,significantly decrease
same,Fold Change IL-6 Secretion Normalized Per Cell,"IL-6; donor 1, Conc. 5 X",0.7141
same,Fold Change IL-6 Secretion Normalized Per Cell,"IL-6; donor 1, Conc. 10 X",0.7354
same,Fold Change IL-6 Secretion Normalized Per Cell,"IL-6; donor 1, Conc. 20 X",0.6121
same,Fold Change IL-6 Secretion Normalized Per Cell,"IL-6; donor 1, Conc. 40 X",0.5716
same,Fold Change IL-6 Secretion Normalized Per Cell,"IL-6; donor 2, Conc. 5 X",0.9161
same,Fold Change IL-6 Secretion Normalized Per Cell,"IL-6; donor 2, Conc. 10 X",0.9180
same,Fold Change IL-6 Secretion Normalized Per Cell,"IL-6; donor 2, Conc. 20 X",0.8111
same,Fold Change IL-6 Secretion Normalized Per Cell,"IL-6; donor 2, Conc. 40 X",0.7064
same,"IL-6 cytokine secretion, per-cell normalized, fold change from plasma amino acid background",IL-6,reduced IL-6 secretion in both donors but was only statistically significant in one of two donors
same,"Fold Change MCP1 Secretion Normalized Per Cell, Mean",MCP-1; Conc. 5 X,0.8492
same,"Fold Change MCP1 Secretion Normalized Per Cell, Mean",MCP-1; Conc. 10 X,0.6565
same,"Fold Change MCP1 Secretion Normalized Per Cell, Mean",MCP-1; Conc. 20 X,0.5413
same,"Fold Change MCP1 Secretion Normalized Per Cell, Mean",MCP-1; Conc. 40 X,0.4485
same,Fold Change MCP1 Secretion Normalized Per Cell,"MCP-1; donor 3, Conc. 1000 μM",0.8492
same,Fold Change MCP1 Secretion Normalized Per Cell,"MCP-1; donor 3, Conc. 2500 μM",0.6565
same,Fold Change MCP1 Secretion Normalized Per Cell,"MCP-1; donor 3, Conc. 5000 μM",0.5413
same,Fold Change MCP1 Secretion Normalized Per Cell,"MCP-1; donor 3, Conc. 10000 μM",0.4485
same,Fold Change MCP1 Secretion Normalized Per Cell,"MCP-1; donor 4, Conc. 5 X",0.6437
same,Fold Change MCP1 Secretion Normalized Per Cell,"MCP-1; donor 4, Conc. 10 X",0.8033
same,Fold Change MCP1 Secretion Normalized Per Cell,"MCP-1; donor 4, Conc. 20 X",0.6728
same,Fold Change MCP1 Secretion Normalized Per Cell,"MCP-1; donor 4, Conc. 40 X",0.5011
same,"MCP-1 chemokine secretion, per-cell normalized, fold change from plasma amino acid background",MCP-1,significantly reduced
"CC(C)[C@H](N)C(=O)O [Valine, L-Valine]","MCP1 expression relative to Control- Donor 1, Mean",MCP1/CCL2; [2],−2.4E−15
same,"MCP1 expression relative to Control- Donor 2, Mean",MCP1/CCL2; [2],−1.4E−14
same,"MCP1 expression relative to Control- Donor 1, Mean",MCP1/CCL2; Conc. 4684 μM,23.6867
same,"MCP1 expression relative to Control- Donor 2, Mean",MCP1/CCL2; Conc. 4684 μM,10.79
same,"MCP1 expression relative to Control- Donor 1, Mean",MCP1/CCL2; Conc. 11710 μM,77.73
same,"MCP1 expression relative to Control- Donor 2, Mean",MCP1/CCL2; Conc. 11710 μM,38.25
same,"MCP1 expression relative to Control- Donor 1, Mean",MCP1/CCL2; Conc. 23420 μM,14.17
same,"MCP1 expression relative to Control- Donor 2, Mean",MCP1/CCL2; Conc. 23420 μM,−30.7921
same,MCP1/CCL2 secretion (baseline subtracted),MCP1/CCL2,did not have an effect
same,Fold Change IL-6 Secretion Normalized Per Cell,"IL-6; donor 1, Conc. 234 μM (plasma background, reference)",1.0000
same,Fold Change IL-6 Secretion Normalized Per Cell,"IL-6; donor 2, Conc. 234 μM (plasma background, reference)",1.0000
same,"IL-6 cytokine secretion, per-cell normalized, fold change from plasma amino acid background",IL-6,no significant effect
same,Fold Change MCP1 Secretion Normalized Per Cell,"MCP-1; donor 3, Conc. 234 μM (plasma background, reference)",1.0000
same,Fold Change MCP1 Secretion Normalized Per Cell,"MCP-1; donor 3, Conc. 4684 μM",1.0630
same,Fold Change MCP1 Secretion Normalized Per Cell,"MCP-1; donor 3, Conc. 11710 μM",1.0204
same,Fold Change MCP1 Secretion Normalized Per Cell,"MCP-1; donor 3, Conc. 23420 μM",1.2651
same,Fold Change MCP1 Secretion Normalized Per Cell,"MCP-1; donor 4, Conc. 234 μM (plasma background, reference)",1.0000
same,"MCP-1 chemokine secretion, per-cell normalized, fold change from plasma amino acid background",MCP-1,no significant impact
